Legend:
[1] = Transformation of type B crystal to type A crystal while stirred as a suspension in acetone-water, crystal form by powder X-ray diffraction; format: physicochemical; details: 5 g suspended in 40 ml acetone and 10 ml water
Method: (§1) The powder X-ray diffraction spectrum was measured in an angle of diffraction that ranged from 3° to 40°, according to the general test method of the Pharmacopoeia of Japan, using RAD-2B diffractometer (radiation source: CuKα) manufactured by Rigaku Denki. During the measurement, voltage/current was set at 35 kV/20 mA, and the scan speed was set at 5°/min.
The mixing ratio of a mixture consisting of an anhydrous tetomilast type A crystal and an anhydrous tetomilast type B crystal was obtained by comparing the powder X-ray diffraction spectrum of the above mixture, with the powder X-ray diffraction spectrum of a mixture formed by mixing a pure anhydrous tetomilast type A crystal and a pure anhydrous tetomilast type B crystal at various ratios.
Thermal transformation from an anhydrous tetomilast type B crystal to an anhydrous tetomilast type A crystal was confirmed by the means described in (1) to (3) below:
(§2) (2) 5 g of the anhydrous tetomilast type B crystal obtained in Reference example 1 (3) was suspended in a solution consisting of 40 ml of acetone and 10 ml of water, and the obtained mixture was then stirred at 20° C. At that time, sampling was carried out at intervals of 15 minutes, 30 minutes, 60 minutes, and 120 minutes, and each of the obtained samples was subjected to powder X-ray diffraction to examine the crystal form.
as §2, with “(3)” for “(2)”, “40°” for “20°”, “form. As a result, it could be confirmed that the sample collected after stirring for 15 minutes was a mixture consisting of an anhydrous tetomilast type B crystal and an anhydrous tetomilast type A crystal (A:B=50:50).” for “form.”

[2] = Crystal form after standing at 20° C. to 30° C., examined by powder X-ray diffraction; format: physicochemical; details: left at a temperature between 20° C. and 30° C. for approximately 1 year
Method: as §1
(1) The anhydrous tetomilast type B crystal obtained in Reference example 1 (3) was left at a temperature between 20° C. and 30° C. for approximately 1 year, and thereafter, the crystal form thereof was examined by powder X-ray diffraction.

CCOc1ccc(-c2nc(-c3cccc(C(=O)O)n3)cs2)cc1OCC [anhydrous tetomilast type B crystal, 2-(3,4-diethoxyphenyl)-4-(2-carboxy-6-pyridyl)thiazole]
crystal form by powder X-ray diffraction ([1]; stirred at 20° C., 15 minutes): maintained the form as an anhydrous tetomilast type B crystal | crystal form by powder X-ray diffraction ([1]; stirred at 20° C., 30 minutes): maintained the form as an anhydrous tetomilast type B crystal | crystal form by powder X-ray diffraction ([1]; stirred at 20° C., 60 minutes): maintained the form as an anhydrous tetomilast type B crystal | crystal form by powder X-ray diffraction ([1]; stirred at 40° C., 30 minutes): changed to an anhydrous tetomilast type A crystal | crystal form by powder X-ray diffraction ([1]; stirred at 40° C., 60 minutes): changed to an anhydrous tetomilast type A crystal | crystal form by powder X-ray diffraction ([1]; stirred at 40° C., 120 minutes): changed to an anhydrous tetomilast type A crystal | crystal form by powder X-ray diffraction [2]: maintained the form as an anhydrous tetomilast type B crystal
